Data from patent publication US9920069B2, “Compounds for treatment of fluoroquinolone-resistant bacteria” (The Board of Trustees of the University of Illinois, priority 2014, dated 2018).
Converted amounts (≈) assume the structure as drawn. Like-named read-outs stand apart in the source and are kept apart here.

Tests used:
[1] = test system: VRE clinical isolate U464; experiment: organism not typed; assay type: cell-based, E. faecium
Method: (§1) QRDR mutations were determined as described in the text using primers (primer sequences can be found in Table 7).
(§2) Susceptibility testing was performed in triplicate using the microdilution broth method as outlined by the Clinical and Laboratory Standards Institute CLSI^52. MH broth was used.

[2] = test system: VRE clinical isolate C27282; experiment: organism not typed; assay type: cell-based, E. faecium
Method: as §1, §2

VRE clinical isolate S51 = experiment: organism not typed; assay type: cell-based, E. faecium
Method: as §1, §2

[3] = test system: VRE clinical isolate U503; experiment: organism not typed; assay type: cell-based, E. faecium
Method: as §1, §2

[4] = test system: VRE clinical isolate C21190; experiment: organism not typed; assay type: cell-based, E. faecium
Method: as §1, §2

[5] = test system: VRE clinical isolate U275; experiment: organism not typed; assay type: cell-based, E. faecium
Method: as §1, §2

VRE clinical isolate U63 = experiment: organism not typed; assay type: cell-based, E. faecium
Method: as §1, §2

[6] = test system: VRE clinical isolate U563; experiment: organism not typed; assay type: cell-based, E. faecium
Method: as §1, §2

[7] = test system: VRE clinical isolate S235; experiment: organism not typed; assay type: cell-based, E. faecium
Method: as §1, §2

VRE clinical isolate S34 = experiment: organism not typed; assay type: cell-based, E. faecium
Method: as §1, §2

[8] = test system: VRE clinical isolate S226; experiment: organism not typed; assay type: cell-based, E. faecium
Method: as §1, §2

WT E. coli DNA gyrase = target: T1, WT E. coli DNA gyrase (Escherichia coli, UniProt P0AES4); assay type: biochemical; conditions: in words
T1 construct: His tag (pTrcHisA vector, purified on Ni-NTA); made in house; host or cells: E. coli One Shot BL21 Star (DE3)

[9] = test system: high level CIP resistant strains of S. aureus ATCC 29213 (S84L GyrA); experiment: microbe, parasite or virus in culture; assay type: cell-based; conditions: Staphylococcus aureus, ATCC29213
Enterococcus ATCC 29212 = experiment: organism not typed; assay type: cell-based, E. faecalis; conditions: ATCC 29212, E. faecalis, gyrA WT, parC WT
physchem = conditions: organic solvent or mixture, thermodynamic from solid
Enterococcus ATCC 19433 = experiment: organism not typed; assay type: cell-based, E. faecalis; conditions: ATCC 19433, E. faecalis; gyrA WT, parC WT; read-out: MIC
[10] = test system: VRE clinical isolate S206; experiment: organism not typed; assay type: cell-based, E. faecalis
Method: as §1, §2

E. coli ATCC 25922 = experiment: microbe, parasite or virus in culture; assay type: cell-based; conditions: Escherichia coli, ATCC25922, gyrA none, parC none
Method: (§3) E. coli MG1655 and the ΔAcrB strain were obtained from Prof. Cari Vanderpool at UIUC.
as §2

P. aeruginosa PAO1 = experiment: microbe, parasite or virus in culture; assay type: cell-based; conditions: Pseudomonas aeruginosa, gyrA none, parC none
Method: as §3, §2

A. baumannii ATCC 19606 = experiment: microbe, parasite or virus in culture; assay type: cell-based; conditions: Acinetobacter baumannii, ATCC19606, gyrA none, parC none
Method: as §3, §2

[11] = test system: MRSA clinical isolate SAU.3021; experiment: MIC, microdilution broth; assay type: cell-based, S. aureus; conditions: Staphylococcus aureus, MRSA, read-out: MIC
Method: as §2

[12] = test system: MRSA clinical isolate SAU.447; experiment: MIC, microdilution broth; assay type: cell-based, S. aureus; conditions: Staphylococcus aureus
Method: as §2

[13] = test system: MRSA clinical isolate SAU.3026; experiment: MIC, microdilution broth; assay type: cell-based, S. aureus; conditions: Staphylococcus aureus, MRSA, read-out: MIC
Method: as §2

A. baumannii KB349 = experiment: MIC, microdilution broth; assay type: cell-based; conditions: Acinetobacter baumannii
Method: as §3, §2

A. baumannii KB304 = experiment: MIC, microdilution broth; assay type: cell-based; conditions: Acinetobacter baumannii
Method: as §3, §2

[14] = test system: S. aureus 29213 (WT GyrA and WT ParC); experiment: microbe, parasite or virus in culture; assay type: cell-based; conditions: for MIC: Staphylococcus aureus, WT GyrA and WT ParC, read-out: MIC against S. aureus 29213
Method: as §2

[15] = test system: MRSA clinical isolate SAU.493; experiment: microbe, parasite or virus in culture; assay type: cell-based, S. aureus; conditions: Staphylococcus aureus, read-out: MIC
Method: as §2

[16] = test system: MRSA clinical isolate SAU.708; experiment: microbe, parasite or virus in culture; assay type: cell-based, S. aureus; conditions: Staphylococcus aureus, read-out: MIC
Method: as §2

[17] = test system: MRSA clinical isolate SAU.489; experiment: microbe, parasite or virus in culture; assay type: cell-based, S. aureus; conditions: Staphylococcus aureus, read-out: MIC
Method: as §2

[18] = test system: MRSA clinical isolate SAU.494; experiment: microbe, parasite or virus in culture; assay type: cell-based, S. aureus; conditions: Staphylococcus aureus, read-out: MIC
Method: as §2

[19] = test system: MRSA clinical isolate SAU.491; experiment: microbe, parasite or virus in culture; assay type: cell-based, S. aureus; conditions: Staphylococcus aureus, read-out: MIC
Method: as §2

[20] = test system: MRSA clinical isolate SAU.709; experiment: microbe, parasite or virus in culture; assay type: cell-based, S. aureus; conditions: Staphylococcus aureus, read-out: MIC
Method: as §2

[21] = test system: MRSA clinical isolate SAU.495; experiment: microbe, parasite or virus in culture; assay type: cell-based, S. aureus; conditions: Staphylococcus aureus, read-out: MIC
Method: as §2

[22] = test system: MRSA clinical isolate SAU.496; experiment: microbe, parasite or virus in culture; assay type: cell-based, S. aureus; conditions: Staphylococcus aureus, read-out: MIC
Method: as §2

[23] = test system: MRSA clinical isolate SAU.492; experiment: microbe, parasite or virus in culture; assay type: cell-based, S. aureus; conditions: Staphylococcus aureus, read-out: MIC
Method: as §2

[24] = test system: MRSA clinical isolate SAU.710; experiment: microbe, parasite or virus in culture; assay type: cell-based, S. aureus; conditions: Staphylococcus aureus, read-out: MIC
Method: as §2

MRSA clinical isolates = experiment: Panel of MRSA clinical isolates (FIG. 2A); assay type: cell-based, S. aureus; conditions: n=21, in words

T1 sequence (P0AES4 whole entry): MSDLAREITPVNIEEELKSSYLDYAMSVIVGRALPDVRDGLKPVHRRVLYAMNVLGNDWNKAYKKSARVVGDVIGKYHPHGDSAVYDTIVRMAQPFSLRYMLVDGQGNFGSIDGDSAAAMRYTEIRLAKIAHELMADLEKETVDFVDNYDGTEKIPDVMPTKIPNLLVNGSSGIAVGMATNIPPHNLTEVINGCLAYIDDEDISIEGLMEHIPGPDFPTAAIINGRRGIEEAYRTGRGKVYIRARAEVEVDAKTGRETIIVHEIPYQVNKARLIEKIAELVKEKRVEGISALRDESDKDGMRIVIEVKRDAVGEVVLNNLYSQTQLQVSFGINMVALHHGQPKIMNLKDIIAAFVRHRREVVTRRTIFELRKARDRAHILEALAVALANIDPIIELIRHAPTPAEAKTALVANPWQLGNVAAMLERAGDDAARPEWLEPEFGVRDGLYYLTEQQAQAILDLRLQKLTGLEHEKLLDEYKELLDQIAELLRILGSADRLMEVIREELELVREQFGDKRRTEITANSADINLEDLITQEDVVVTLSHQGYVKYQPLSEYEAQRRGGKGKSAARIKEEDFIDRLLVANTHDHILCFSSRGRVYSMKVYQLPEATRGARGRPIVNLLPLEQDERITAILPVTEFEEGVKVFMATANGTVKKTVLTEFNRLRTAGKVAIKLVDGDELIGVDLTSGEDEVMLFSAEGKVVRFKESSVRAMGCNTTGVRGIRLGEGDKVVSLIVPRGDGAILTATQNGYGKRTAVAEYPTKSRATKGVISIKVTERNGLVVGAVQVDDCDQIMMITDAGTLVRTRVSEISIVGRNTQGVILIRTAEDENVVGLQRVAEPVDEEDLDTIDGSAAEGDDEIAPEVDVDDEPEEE

Structure (SMILES) | MIC [1] | MIC [2] | MIC (VRE clinical isolate S51) | MIC [3] | MIC [4] | MIC [5] | MIC (VRE clinical isolate U63) | MIC [6] | MIC [7] | MIC (VRE clinical isolate S34) | MIC [8] | inhibition of WT DNA gyrase (WT E. coli DNA gyrase) | MIC [9] | MIC (Enterococcus ATCC 29212; read-out: MIC) | solubility (physchem) | MIC (Enterococcus ATCC 19433) | MIC [10] | MIC (E. coli ATCC 25922) | MIC (P. aeruginosa PAO1) | MIC (A. baumannii ATCC 19606) | other results
CCn1c(=O)cc(C)c2cc3c(C)cc(=O)n4c3c(c21)OC4 [DNM-2] | 2 µg/mL (≈ 6.75 µM) | 4 µg/mL (≈ 13.5 µM) | 0.5 µg/mL (≈ 1.69 µM) | 4 µg/mL (≈ 13.5 µM) | 8 µg/mL (≈ 27 µM) | 2 µg/mL (≈ 6.75 µM) | 4 µg/mL (≈ 13.5 µM) | 2 µg/mL (≈ 6.75 µM) | 0.5 µg/mL (≈ 1.69 µM) | 1 µg/mL (≈ 3.37 µM) | 0.5 µg/mL (≈ 1.69 µM) | poor inhibitors of WT DNA gyrase | 0.06 to 0.12 µg/mL (≈ 0.202 to 0.405 µM) | 8 µg/mL (≈ 27 µM) | 4000 µM (≈ 1190 µg/mL) | 8 µg/mL (≈ 27 µM) | 2 µg/mL (≈ 6.75 µM) | > 24 µg/mL | > 24 µg/mL | > 24 µg/mL | MIC [11]: 0.063 µg/mL (≈ 0.213 µM); MIC [12]: 0.125 µg/mL (≈ 0.422 µM); MIC [13]: 0.125 µg/mL (≈ 0.422 µM); MIC (A. baumannii KB349): > 24 µg/mL; MIC (A. baumannii KB304): > 24 µg/mL; MIC [14]: 8 µg/mL (≈ 27 µM); MIC [15]: 0.125 µg/mL (≈ 0.422 µM); MIC [16]: 0.125 µg/mL (≈ 0.422 µM); MIC [17]: 0.125 µg/mL (≈ 0.422 µM); MIC [18]: 0.125 µg/mL (≈ 0.422 µM); MIC [19]: 0.125 µg/mL (≈ 0.422 µM); MIC [20]: 0.125 µg/mL (≈ 0.422 µM); MIC [21]: 0.125 µg/mL (≈ 0.422 µM); MIC [22]: 0.125 µg/mL (≈ 0.422 µM); MIC [23]: 0.125 µg/mL (≈ 0.422 µM); MIC [24]: 0.063 µg/mL (≈ 0.213 µM); sensitivity of MRSA clinical isolates (MRSA clinical isolates): sensitive
Cc1cc(=O)n(C)c2c3c4c(cc12)c(C)cc(=O)n4CO3 [DNM, deoxynybomycin] | 1 µg/mL (≈ 3.54 µM) | > 1 µg/mL | 0.25 µg/mL (≈ 0.886 µM) | > 1 µg/mL | > 1 µg/mL | 1 µg/mL (≈ 3.54 µM) | 1 µg/mL (≈ 3.54 µM) | > 1 µg/mL | 0.125 µg/mL (≈ 0.443 µM) | 1 µg/mL (≈ 3.54 µM) | 0.25 µg/mL (≈ 0.886 µM) | poor inhibitors of WT DNA gyrase | 0.03 to 0.06 µg/mL (≈ 0.106 to 0.213 µM) | > 1 µg/mL | 200 µM (≈ 56.5 µg/mL) | > 1 µg/mL | 1 µg/mL (≈ 3.54 µM) | > 4 µg/mL | > 4 µg/mL | > 4 µg/mL | MIC (Enterococcus ATCC 29212): >1 µg/mL; MIC [11]: 0.031 µg/mL (≈ 0.11 µM); MIC [12]: 0.063 µg/mL (≈ 0.223 µM); MIC [13]: 0.125 µg/mL (≈ 0.443 µM); MIC (A. baumannii KB349): > 4 µg/mL; MIC (A. baumannii KB304): > 4 µg/mL; MIC [14]: > 1 µg/mL; activity against FQ-sensitive strain 29213 ([14]; in words): modest activity; MIC [15]: 0.063 µg/mL (≈ 0.223 µM); MIC [16]: 0.063 µg/mL (≈ 0.223 µM); MIC [17]: 0.031 µg/mL (≈ 0.11 µM); MIC [18]: 0.063 µg/mL (≈ 0.223 µM); MIC [19]: 0.125 µg/mL (≈ 0.443 µM); MIC [20]: 0.063 µg/mL (≈ 0.223 µM); MIC [21]: 0.063 µg/mL (≈ 0.223 µM); MIC [22]: 0.063 µg/mL (≈ 0.223 µM); MIC [23]: 0.063 µg/mL (≈ 0.223 µM); MIC [24]: 0.031 µg/mL (≈ 0.11 µM); sensitivity of MRSA clinical isolates (MRSA clinical isolates): sensitive
